In ChEMBL document CHEMBL5260836, “Combating Autoimmune Diseases With Retinoic Acid Receptor-Related Orphan Receptor-γ (RORγ or RORc) Inhibitors: Hits and Misses” (J Med Chem, 2018):
≈ marks a conversion by molar mass, not a printed value. One block for each compound: values may come before it.

Legend:
[1] = Inhibition of IL-17A production in human PBMC derived from rheumatoid arthritis; assay type: functional, cell-based
Mus musculus [2] = experiment: Anti-arthritis activity against collagen-induced arthritis DBA/1Lacj mouse model assessed as arthritis clinical score at 10 mg/kg, po twice daily from day 21 to 35 relative to control; assay type: functional; conditions: 504 h
Mus musculus [3] = experiment: Anti-arthritis activity against collagen-induced arthritis DBA/1Lacj mouse model assessed as arthritis clinical score at 60 mg/kg, po twice daily from day 21 to 35 relative to control; assay type: functional; conditions: 504 h
Mus musculus [4] = experiment: Anti-arthritis activity against collagen-induced arthritis DBA/1Lacj mouse model assessed as arthritis clinical score at 30 mg/kg, po twice daily from day 21 to 35 relative to control; assay type: functional; conditions: 504 h
[5] = molecular target: T1, Nuclear receptor ROR-gamma (Homo sapiens, UniProt P51449); experiment: Inhibition of human GAL4-fused RORgammat LBD transfected in Escherichia coli BL21(DE3) cell measured after 16 hrs by HTRF assay
T1 sequence (P51449 whole entry): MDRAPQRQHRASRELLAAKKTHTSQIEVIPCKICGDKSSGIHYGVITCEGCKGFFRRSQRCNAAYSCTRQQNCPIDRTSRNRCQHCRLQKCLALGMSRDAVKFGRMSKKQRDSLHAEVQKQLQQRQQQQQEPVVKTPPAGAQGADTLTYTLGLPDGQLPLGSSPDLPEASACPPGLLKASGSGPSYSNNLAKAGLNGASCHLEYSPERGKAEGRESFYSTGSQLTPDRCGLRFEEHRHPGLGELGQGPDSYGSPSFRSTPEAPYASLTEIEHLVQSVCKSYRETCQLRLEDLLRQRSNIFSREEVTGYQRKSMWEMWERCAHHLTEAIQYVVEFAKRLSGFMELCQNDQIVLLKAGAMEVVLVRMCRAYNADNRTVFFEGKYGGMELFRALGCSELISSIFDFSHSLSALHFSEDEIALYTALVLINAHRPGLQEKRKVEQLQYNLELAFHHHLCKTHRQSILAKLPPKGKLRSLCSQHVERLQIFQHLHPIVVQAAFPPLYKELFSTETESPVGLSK

cells [6] = conditions: Homo sapiens, Th17
[7] = Solubility of the compound; assay type: physicochemical
[8] = Oral bioavailability in rat; assay type: ADME, organism-based; conditions: in vivo
[9] = Oral bioavailability in dog; assay type: ADME, organism-based, Canis lupus familiaris; conditions: in vivo
[10] = Unbound fraction in human plasma; assay type: ADME, cell-free
[11] = Half life in rat; assay type: ADME; conditions: in vivo
[12] = Half life in dog; assay type: ADME, Canis lupus familiaris; conditions: in vivo
Mus musculus [13] = organism: Mus musculus; experiment: animal or person; conditions: po, read-out: INH
Description: Anti-inflammatory activity against mouse EAE model assessed as reduction in EAE score at 100 mg/kg, po relative to control

Homo sapiens [14] = organism: Homo sapiens; experiment: tissue or blood
Description: Inhibition of IL-17A secretion in healthy human whole blood

Homo sapiens [15] = organism: Homo sapiens; experiment: tissue or blood; remark: listed apart in the source
Description: Inhibition of IL-17A secretion in psoriatic human whole blood

cells [16] = conditions: Homo sapiens, PBMC
Description: Inhibition of IL-17A secretion in human PBMC cells

[17] = molecular target: T1, Nuclear receptor ROR-gamma; experiment: Inhibition of GAL4-RORgammat LBD (unknown origin); assay type: cell-based, HEK293
[18] = molecular target: T1, Nuclear receptor ROR-gamma; experiment: Inverse agonist activity at human GAL4-RORgamma […] expressed in HEK293 cells measured after 24 hrs by ligand binding assay; assay type: cell-based
Homo sapiens [19] = organism: Homo sapiens; experiment: Inhibition of IL-17 production in human whole blood measured after 72 hrs by ELISA; assay type: functional
[20] = molecular target: T1, Nuclear receptor ROR-gamma; experiment: Inverse agonist activity at His-tagged human RORgammat LBD assessed as inhibition of biotinylated RIP140 co-activator peptide binding incubated for 1 hr by TR-FRET assay
[21] = Unbound fraction in rat blood; assay type: ADME, tissue-based
[22] = Unbound fraction in human blood; assay type: ADME, tissue-based
[23] = molecular target: T1, Nuclear receptor ROR-gamma; experiment: Inhibition of human GAL4-fused RORgamma LBD transfected in HEK293T cell measured after 24 hrs by luciferase reporter assay; assay type: cell-based
[24] = Oral bioavailability in mouse; assay type: ADME, organism-based; conditions: in vivo
[25] = Half life in mouse; assay type: ADME, organism-based; conditions: in vivo
cells [26] = conditions: Homo sapiens, PBMC, 144 h
Description: Decrease in Tc17 cell differentiation in CD8+ T cells from human PBMC cells cultured under the Tc17-skewing conditions measured after 6 days

Homo sapiens [27] = organism: Homo sapiens; experiment: tissue or blood; conditions: 18 h
Description: Reduction of IL22 level in human whole blood measured after 18 hrs by ELISA

Homo sapiens [28] = organism: Homo sapiens; experiment: tissue or blood; conditions: 18 h; remark: listed apart in the source
Description: Reduction of IL17 level in human whole blood measured after 18 hrs by ELISA

Homo sapiens [29] = organism: Homo sapiens; experiment: tissue or blood; conditions: 18 h; remark: listed apart in the source
Description: Reduction of IL17F level in human whole blood measured after 18 hrs by ELISA

[30] = Suppression of Th17 polarization in human CD4+ T cells cultured under Th17-skewing conditions measured after 4 days
cells [31] = conditions: Homo sapiens, PBMC; remark: listed apart in the source
[32] = molecular target: T2, Nuclear receptor ROR-gamma (Homo sapiens) (UniProt P51449); experiment: Inverse agonist activity at GAL4-RORgammat LBD (unknown origin) expressed in HEK293 cells at 1 uM measured after 24 hrs by nuclear receptor assay relative to control; assay type: cell-based
T2 sequence (whole entry): T1 sequence (P51449 whole entry)

hERG (KCNH2) = hERG (KCNH2) (Homo sapiens, UniProt Q12809); experiment: Inhibition of human ERG at 3 uM relative to control; assay type: toxicity
hERG (KCNH2), sequence (Q12809 whole entry): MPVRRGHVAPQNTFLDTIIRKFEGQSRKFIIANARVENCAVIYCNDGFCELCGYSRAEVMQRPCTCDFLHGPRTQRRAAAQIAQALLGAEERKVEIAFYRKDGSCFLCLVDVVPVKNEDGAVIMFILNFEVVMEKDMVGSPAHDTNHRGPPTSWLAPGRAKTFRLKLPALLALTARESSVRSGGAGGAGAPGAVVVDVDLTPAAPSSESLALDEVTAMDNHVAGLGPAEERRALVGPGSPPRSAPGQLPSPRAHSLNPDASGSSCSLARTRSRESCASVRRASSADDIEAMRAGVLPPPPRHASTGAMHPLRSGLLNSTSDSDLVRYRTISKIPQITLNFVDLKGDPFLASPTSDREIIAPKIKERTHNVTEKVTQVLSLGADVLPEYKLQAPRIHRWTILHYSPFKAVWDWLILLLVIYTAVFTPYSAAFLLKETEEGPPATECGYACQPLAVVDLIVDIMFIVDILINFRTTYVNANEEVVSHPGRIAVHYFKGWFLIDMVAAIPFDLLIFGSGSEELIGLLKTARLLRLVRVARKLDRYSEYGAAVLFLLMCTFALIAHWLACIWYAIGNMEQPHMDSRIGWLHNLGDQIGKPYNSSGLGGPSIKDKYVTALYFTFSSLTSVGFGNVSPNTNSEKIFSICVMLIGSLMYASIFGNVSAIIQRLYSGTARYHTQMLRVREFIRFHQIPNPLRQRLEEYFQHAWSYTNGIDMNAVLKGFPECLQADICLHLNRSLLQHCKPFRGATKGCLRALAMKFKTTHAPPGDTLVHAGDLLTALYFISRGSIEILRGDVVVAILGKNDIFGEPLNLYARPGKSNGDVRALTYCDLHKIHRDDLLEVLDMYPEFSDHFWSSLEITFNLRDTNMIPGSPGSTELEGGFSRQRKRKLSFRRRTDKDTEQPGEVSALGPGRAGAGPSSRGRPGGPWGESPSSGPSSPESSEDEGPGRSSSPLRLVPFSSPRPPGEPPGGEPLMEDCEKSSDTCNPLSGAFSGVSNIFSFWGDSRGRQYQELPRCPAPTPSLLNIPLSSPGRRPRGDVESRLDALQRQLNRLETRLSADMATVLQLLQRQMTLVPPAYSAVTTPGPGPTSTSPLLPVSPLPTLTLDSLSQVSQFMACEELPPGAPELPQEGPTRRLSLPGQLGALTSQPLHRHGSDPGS

[33] = Inhibition of IL-17 production in human PBMC isolated from COPD patients measured after 72 hrs by ELISA based assay; assay type: functional, cell-based
[34] = Inhibition of IL-17 production in human BAL cells isolated from COPD patients measured after 72 hrs by ELISA based assay; assay type: functional; conditions: Bronchoalveolar lavage cell
[35] = Inhibition of IL-17 production in human Th17 cells relative to control; assay type: functional
[36] = molecular target: T2, Nuclear receptor ROR-gamma (Homo sapiens); experiment: Inhibition of human RORgamma by TR-FRET assay relative to control
[37] = molecular target: T1, Nuclear receptor ROR-gamma; experiment: Inhibition of transactivation of Gal4-tagged RORgamma (unknown origin) transfected in human HG5LN cells incubated for 18 hrs by luciferase reporter gene assay; assay type: cell-based

Compound: COc1nc2ccc([C@](O)(c3ccc(C)nc3C)c3cnnn3C)cc2c(Cl)c1Cc1ccc(C(F)(F)F)cc1
- IC50 [1]: 5 nM
- inhibition in vivo at 10 mg/kg (Mus musculus [2]): 32%
- inhibition in vivo at 60 mg/kg (Mus musculus [3]): 78%
- inhibition in vivo at 30 mg/kg (Mus musculus [4]): 46%

Compound: COc1c(NC(=O)c2cccc(C#N)c2)cnc2c1c(C1CCN(C(=O)C3CCCC3)CC1)cn2C
- IC50 (cells [6]): 29.8 nM

Compound: C[C@H]1CCCCN1C(=O)c1nc(C(=O)NCC(C)(C)O)sc1-c1cnc(NCC(C)(C)C)cc1C(F)(F)F
- IC50 (cells [6]): 2.8 nM

Compound: Cc1cc(C(F)(F)F)cc2c1cc(Cc1c(Cl)ccc(C(=O)N3CCN(C4COC4)CC3)c1Cl)n2C
- IC50 [17]: < 100 nM

Compound: Cc1ncc(C(=O)Nc2cn3ccnc3c(CN3CCN(C(=O)C4CCCC4)[C@@H](C)C3)c2C)cn1
- IC50 (Homo sapiens [19]): 168 nM
- bioavailability [8]: 23%
- IC50 [20]: 13 nM
- fraction unbound [21]: 0.256
- fraction unbound [22]: 0.312

Compound: CCS(=O)(=O)c1ccc(CNc2nc3c(C)nc(-c4c(C)ncnc4C4CC4)nc3n([C@@H](C)C3CC3)c2=O)nc1
- IC50 [23]: 60 nM

Compound: CC[C@H]1c2ncc(C(=O)N[C@@H](CO)c3ccc(S(=O)(=O)CC)cn3)cc2CN1C[C@H]1CC[C@H](C(F)(F)F)CC1
- inhibition at 3 µM (hERG (KCNH2)): 7.7%

Compound: Cc1ccc(N(CC(C)C)S(=O)(=O)c2ccc3c(c2)[nH]c(=O)n3CC2CCOCC2)c(C)c1
- IC50 [37]: 19 nM

Now from value to compound, other results behind:

- IC50 [5]: 2 nM
Compound: O=C(O)c1ccc(-c2nn(C(=O)c3c(Cl)cccc3C(F)(F)F)c3cccnc23)c(F)c1

- solubility [7]: 380 µM (≈ 199 µg/mL)
- bioavailability [8]: 34%
- bioavailability [9]: 96%
- fraction unbound [10]: 0.16
Compound: CC(=O)N1Cc2cc(S(C)(=O)=O)ccc2[C@@H]1C(=O)Nc1ccc(C(O)(C(F)(F)F)C(F)(F)F)cc1

- half-life [11]: 360 min
- solubility [7]: 17 µM (≈ 9.4 µg/mL)
- bioavailability [8]: 64%
- bioavailability [9]: 66%
- half-life [12]: 900 min
- fraction unbound [10]: 0.005
- IC50 (Homo sapiens [14]): 207 nM
- IC50 (Homo sapiens [15]): 250 nM
- IC50 (cells [16]): 21 nM
Compound: CCS(=O)(=O)c1ccc(CNC(=O)c2cnc3c(c2)CN(C[C@H]2CC[C@H](C(F)(F)F)CC2)[C@H]3C(C)C)nc1
- inhibition in vivo at 100 mg/kg (Mus musculus [13]): > 95%

- IC50 [18]: < 1000 nM
Compound: CCOC(=O)CC1CN(Cc2ccc(-c3ccc(C(O)(C(F)(F)F)C(F)(F)F)cc3)cc2)CCN1Cc1ccncc1 (stereo not given)

- bioavailability [24]: 96%
- half-life [25]: > 240 min
- IC50 (cells [26]): 9.5 nM
- IC50 (Homo sapiens [27]): 1600 nM
- IC50 (Homo sapiens [28]): 120 nM
- IC50 (Homo sapiens [29]): 430 nM
- IC50 [30]: 28 nM
- IC50 (cells [31]): 102 nM
Compound: COc1ccc2c(n1)CCN(C(=O)[C@H]1C[C@@H](CC(=O)O)C1)[C@H]2C(=O)Nc1cc(F)c2c(c1)CCC2(C)C

- inhibition [32]: 80%
Compound: NC(=O)Cc1ccc(CNc2ncnc(N3CCOC[C@@H]3c3ccc(C(F)(F)F)cc3)c2F)cc1

- IC50 [33]: 147 nM
- IC50 [34]: 350 nM
Compound: CCn1c(C(C)(C)Oc2ccc(F)cc2F)nc2cc(NC(=O)Cc3ccc(S(=O)(=O)CC)cc3)ccc21

- IC50 (cells [6]): 180 nM
- Efficacy [36]: -69%
Compound: O=C(Nc1ccc2c(c1)CN(S(=O)(=O)c1cccc(C(F)(F)F)c1)CCO2)c1c(F)cccc1Cl
- Efficacy [35]: -73%
